Measured values reported in US11186575B2, “Treatment of helicobacter pylori infections” (Albert Einstein College of Medicine, Inc., priority 2012, dated 2021).
Converted amounts (≈) assume the structure as drawn. Like-named read-outs stand apart in the source and are kept apart here.

What was measured:
H. pylori MTAN [1] = target: T1, H. pylori MTAN (Helicobacter pylori, UniProt Q9ZMY2); settings: Table 3, cited from earlier work
T1 construct: His6 (N); made in house; host or cells: E. coli BL21 (DE3)
T1 sequence (Q9ZMY2 1-230): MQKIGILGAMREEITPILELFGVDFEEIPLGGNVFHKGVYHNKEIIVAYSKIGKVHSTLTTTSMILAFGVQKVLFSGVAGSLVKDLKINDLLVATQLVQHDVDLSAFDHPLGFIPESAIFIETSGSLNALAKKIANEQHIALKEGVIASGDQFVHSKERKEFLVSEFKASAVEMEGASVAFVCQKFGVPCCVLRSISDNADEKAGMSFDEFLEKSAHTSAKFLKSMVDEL

H. pylori [2] = assay: H. pylori growth on tryptic soy agar with 5% horse blood (MIC); assay type: cell-based, Helicobacter pylori; settings: Helicobacter pylori, read-out: Inhibition of H. pylori growth MIC90
Protocol: (§1) H. pylori were grown for 72 hours under microaerophilic condition (5% O2, 10% CO2 and 85% N2) at 37° C. on tryptic soy agar with 5% horse blood. To determine the MIC values, the test substance was added to the gel solution right before pouring. To compare the zones of inhibition, specific antibiotics were added to the center of disc after spreading H. pylori, and then H. pylori was allowed to grow for 72 hours under microaerophilic condition at 37° C.
The effects of BuT-DADMe-ImmA (30) were tested on H. pylori growing on 5% horse blood agar. At 6 ng/ml, slight growth was detected and at 8 ng/ml, no growth was detected, therefore the MIC90 value for inhibition of H. pylori growth is <8 ng/ml (FIG. 3A).

H. pylori MTAN [3] = target: T1, H. pylori MTAN; assay: Ki determination: inhibition of recombinant HpMTAN, xanthine oxidase coupled assay, 5′-methylthioadenosine as substrate; assay type: biochemical
Protocol: The purification procedure of HpMTAN was described previously^10. Briefly, BL21 (DE3) cells harboring a plasmid encoding HpMTAN with an N-terminal His6-tag were grown to an optical density of 0.7 measured at 595 nm and IPTG was introduced to a final concentration of 0.5 mM. After another 15 h at 22° C., cells were collected by centrifugation. The pellet was suspended and later disrupted by pressure cell and sonication. The soluble portion was applied to a Ni-NTA column and HpMTAN was eluted with an imidazole concentration gradient of 200 to 500 mM. The protein was desalted using a Superdex G15 gel-filtration column then equilibrated and concentrated in 10 mM Hepes, 30 mM KCl, pH 7.6. The purity was confirmed by SDS-PAGE.
Kinetics of HpMTAN were determined using a direct assay involving absorbance decrease at 274 nm continuously as a consequence of formation of free adenine from 5′-methylthioadenosine. The Ki and Ki* values of BuT-DADMe-ImmA (30) were determined using coupled assays, in which xanthine oxidase was used as the coupling enzyme and absorbance increase was followed at 292 nm as the product adenine is converted to 2,8-dihydroxyadenine. Both assays have been previously described
BuT-DADMe-ImmA (30) was previously characterized as a transition state analogue inhibitor of EcMTAN (FIG. 1C)^8. Here, inhibition assays were performed using BuT-DADMe-ImmA against recombinant HpMTAN with 5′-methylthioadenosine as substrate. Purified HpMTAN uses both 5′-methylthioadenosine and 6-amino-6-deoxyfutalosine as facile substrates. […] The low Kd value supports the proposal that BuT-DADMe-ImmA is a transition state analogue inhibitor for HpMTAN. […] The nitrogen of the hydroxypyrrolidine moiety has a pKa value of 9, and thus mimics the positive charge of a ribocation at the transition state. The methylene bridge extends the distance between the sugar and the purine base leaving group, as this distance is near 3 Å at the transition state. The 9-deazaadenine alters conjugation in the purine ring, causing an elevated pKa and protonation of N7, resembling the N7-protonated adenine leaving group at the transition state.

H. pylori [4] = assay: Zone of inhibition (disc) on H. pylori; assay type: cell-based, Helicobacter pylori; settings: equivalent amounts (10 ng or 20 ng per disc)
Protocol: FIG. 3A-3B: The effects of BuT-DADMe-ImmA (30) on H. pylori growth. A. The effects of increasing the concentration of BuT-DADMe-ImmA (ng/ml) on growth on blood agar. B. The inhibitory effects of BuT-DADMe-ImmA are compared with amoxicillin, metronidazole and tetracyclin in zone of inhibition studies. Drug concentrations were: 0 (top disc), 10 ng (middle disc) or 20 ng (bottom disc). Each specified antibiotic was applied to the disc in the same manner.
as §1
Commonly used antibiotics in H. pylori infections include amoxicillin, metronidazole and tetracycline. The anti-H. pylori effects of BuT-DADMe-ImmA (30) were compared to those antibiotics in common use. […] Thus, BuT-DADMe-ImmA is more efficient at inhibition of H. pylori growth than commonly used antibiotics.

[5] = Table 3, agar plate, 72 hours, microaerophilic
[6] = Table 4, Immucillin-A series, read-out: Inhibition of H. pylori MTAN Ki
[7] = 72 h, Table 4, Immucillin-A series
[8] = Table 3, DADMe-Immucillin-A series, initial inhibition constant, read-out: Inhibition of H. pylori MTAN Ki
[9] = Table 3, equilibrium dissociation constant after slow onset, read-out: Inhibition of H. pylori MTAN Ki*
[10] = Table 4, Immucillin-A series, read-out: Inhibition of H. pylori MTAN Ki*

Row | MIC90 (H. pylori [2]; [5]) | Ki (H. pylori MTAN [3]; [8]) | Ki (H. pylori MTAN [3]; [9]) | SMILES | other results
1 | > 0.1 µg/mL | 0.28 ± 0.02 nM | – | Nc1ncnc2c(CN3C[C@H](CSc4n[nH]c(-c5ccncc5)n4)[C@@H](O)C3)c[nH]c12 [Compound 56, (3R,4S)-1-({4-Amino-5H-pyrrolo[3,2-d]pyrimidin-7-yl}methyl)-4-({[5-(pyridin-4-yl)-1H-1,2,4-triazol-3-yl]thio}methyl)pyrrolidin-3-ol] | –
2 | 0.04 µg/mL (≈ 0.108 µM) | 203 ± 28 nM | 0.31 ± 0.08 nM | Nc1ncnc2c(CN3C[C@H](CSCc4ccccc4)[C@@H](O)C3)c[nH]c12 [Compound 38] | –
3 | – | 0.27 ± 0.04 nM | 0.04 ± 0.01 nM | Nc1ncnc2c(CN3C[C@H](CSC4CCC4)[C@@H](O)C3)c[nH]c12 [Compound 40] | –
4 | 0.018 to 0.035 µg/mL (≈ 0.0479 to 0.0932 µM) | 0.56 ± 0.27 nM | 0.045 ± 0.004 nM | Nc1ncnc2c(CN3C[C@H](CSCC4CCCCC4)[C@@H](O)C3)c[nH]c12 [Compound 36] | –
5 | 0.035 to 0.07 µg/mL (≈ 0.0932 to 0.186 µM) | 0.4 ± 0.05 nM | 0.027 ± 0.002 nM | Nc1ncnc2c(CN3C[C@H](CSC4CCCCCC4)[C@@H](O)C3)c[nH]c12 [Compound 37] | –
6 | 0.016 µg/mL (≈ 0.0581 µM) | 0.053 ± 0.007 nM | – | CCC[C@H]1CN(Cc2c[nH]c3c(N)ncnc23)C[C@@H]1O [Compound 35] | –
7 | 0.016 µg/mL (≈ 0.052 µM) | 0.12 ± 0.03 nM | 0.52 ± 0.04 nM | CCSC[C@H]1CN(Cc2c[nH]c3c(N)ncnc23)C[C@@H]1O [Compound 34] | –

Continued, compound first:

Row | SMILES | MIC90 (H. pylori [2]; [5]) | Ki (H. pylori MTAN [3]; [8]) | Ki (H. pylori MTAN [3]; [9]) | other results
8 | CSCC1CN(Cc2c[nH]c3c(N)ncnc23)CC1O (stereo not shown) [Compound 31] | 0.006 to 0.012 µg/mL (≈ 0.0205 to 0.0409 µM) | – | – | Ki (H. pylori MTAN [1]; read-out: Inhibition of H. pylori MTAN Ki*, value from Reference 10): 0.57 nM; Ki (H. pylori MTAN [1]; read-out: Inhibition of H. pylori MTAN Ki, value marked (Reference 10)): 1.2 nM
9 | CCCSC[C@H]1NC(c2c[nH]c3c(N)ncnc23)[C@H](O)[C@@H]1O (stereo partly shown) [Compound 42] | – | – | – | Ki (H. pylori MTAN [3]; [6]): 0.6 ± 0.1 nM; MIC90 (H. pylori [2]; [7]): 0.016 µg/mL (≈ 0.0495 µM)
10 | CCCCCCSCC[C@H]1CN(Cc2c[nH]c3c(N)ncnc23)C[C@@H]1O [Compound 19, (3R,4S)-1-({4-Amino-5H-pyrrolo[3,2-d]pyrimidin-7-yl}methyl)-4-[2-(hexylthio)ethyl]pyrrolidin-3-ol] | 0.04 µg/mL (≈ 0.106 µM) | 0.7 ± 0.1 nM | 0.14 ± 0.01 nM | –
11 | Nc1ncnc2c(CN3CC(O)C(CSc4ccc(Cl)cc4)C3)c[nH]c12 (stereo not shown) [Compound 41] | – | – | – | Ki (H. pylori MTAN [1]; value from Reference 10, read-out: Inhibition of H. pylori MTAN Ki*): 0.57 nM; Ki (H. pylori MTAN [1]; value marked (Reference 10), read-out: Inhibition of H. pylori MTAN Ki): 40 nM
12 | CCCCSC[C@H]1NC(c2c[nH]c3c(N)ncnc23)[C@H](O)[C@@H]1O (stereo partly shown) [Compound 43] | – | – | – | Ki (H. pylori MTAN [3]; [6]): 0.51 ± 0.07 nM; Ki (H. pylori MTAN [3]; [10]): 0.05 ± 0.01 nM; MIC90 (H. pylori [2]; [7]): 0.02 µg/mL (≈ 0.0593 µM)
13 | CCCCCCSC[C@H]1CN(Cc2c[nH]c3c(N)ncnc23)C[C@@H]1O [Compound 18, (3R,4S)-1-({4-Amino-5H-pyrrolo[3,2-d]pyrimidin-7-yl}methyl)-4-[(hexylthio)methyl]pyrrolidin-3-ol] | 0.004 to 0.008 µg/mL (≈ 0.011 to 0.022 µM) | 0.21 ± 0.03 nM | 0.005 ± 0.002 nM | –
14 | Nc1ncnc2c(CN3CC(O)[C@@H](CSCCCO)C3)c[nH]c12 (stereo partly drawn) [Compound 11, (4S)-1-((4-Amino-5H-pyrrolo[3,2-d]pyrimidin-7-yl)methyl)-4-(((3-hydroxypropyl)thio)methyl)pyrrolidin-3-ol] | 0.04 µg/mL (≈ 0.119 µM) | 0.89 ± 0.13 nM | 0.1 ± 0.01 nM | –
15 | Cc1ncc([N+](=O)[O-])n1CCO [metronidazole, reference compound] | – | – | – | zones of inhibition, comparison of antibiotics (H. pylori [4]): no growth inhibition
16 | Nc1ncnc2c(CN3C[C@H](CSc4ccccn4)[C@@H](O)C3)c[nH]c12 [Compound 24, (3R,4S)-1-({4-Amino-5H-pyrrolo[3,2-d]pyrimidin-7-yl}methyl)-4-[(pyridin-2-ylthio)methyl]pyrrolidin-3-ol] | 0.04 µg/mL (≈ 0.112 µM) | 0.32 ± 0.7 nM | 0.041 ± 0.002 nM | –
17 | CCCC[C@H]1CN(Cc2c[nH]c3c(N)ncnc23)C[C@@H]1O [Compound 33] | 0.01 µg/mL (≈ 0.0346 µM) | 0.058 ± 0.014 nM | 0.007 ± 0.002 nM | –
18 | Nc1ncnc2c(CN3CC(O)[C@@H](CSCCOCCO)C3)c[nH]c12 (stereo partly drawn) [Compound 13, (4S)-1-((4-Amino-5H-pyrrolo[3,2-d]pyrimidin-7-yl)methyl)-4-(((2-(2-hydroxyethoxyl)ethyl)thio)methyl)pyrrolidin-3-ol] | 0.035 to 0.07 µg/mL (≈ 0.0952 to 0.19 µM) | 0.96 ± 0.16 nM | 0.015 ± 0.004 nM | –
19 | Nc1ncnc2c(CN3C[C@H](CCSCCOCCO)[C@@H](O)C3)c[nH]c12 [Compound 17, (3R,4S)-1-({4-Amino-5H-pyrrolo[3,2-d]pyrimidin-7-yl}methyl)-4-(2-{[2-(2-hydroxyethoxy)ethyl]thio}ethyl)pyrrolidin-3-ol] | 0.08 µg/mL (≈ 0.21 µM) | 0.28 ± 0.03 nM | 0.05 ± 0.01 nM | –
20 | Nc1ncnc2c(CN3CC(O)[C@@H](CSCCO)C3)c[nH]c12 (stereo partly drawn) [Compound 10, (4S)-1-((4-amino-5H-pyrrolo[3,2-d]pyrimidin-7-yl)methyl)-4-(((2-hydroxyethyl)thio)methyl)pyrrolidin-3-ol] | – | 0.43 ± 0.12 nM | 0.04 ± 0.01 nM | –
21 | Nc1ncnc2c(CN3C[C@H](CSc4cnccn4)[C@@H](O)C3)c[nH]c12 [Compound 27, (3R,4S)-1-({4-Amino-5H-pyrrolo[3,2-d]pyrimidin-7-yl}methyl)-4-[(pyrazin-2-ylthio)methyl]pyrrolidin-3-ol] | 0.008 µg/mL (≈ 0.0224 µM) | 0.043 ± 0.001 nM | 0.006 nM | –
22 | CSC[C@H]1NC(c2c[nH]c3c(N)ncnc23)[C@H](O)[C@@H]1O (stereo partly shown) [Compound 44] | – | – | – | Ki (H. pylori MTAN [3]; [6]): 0.98 ± 0.06 nM; Ki (H. pylori MTAN [3]; [10]): 0.24 ± 0.03 nM; MIC90 (H. pylori [2]; [7]): 0.08 µg/mL (≈ 0.271 µM)
23 | Nc1ncnc2c(CN3C[C@H](CSc4nccs4)[C@@H](O)C3)c[nH]c12 [Compound 29] | 0.02 µg/mL (≈ 0.0552 µM) | 0.24 ± 0.07 nM | 0.016 ± 0.005 nM | –
24 | Nc1ncnc2c(CN3C[C@H](CSC4CCCC4)[C@@H](O)C3)c[nH]c12 [Compound 32] | 0.007 to 0.014 µg/mL (≈ 0.0201 to 0.0403 µM) | 0.78 ± 0.15 nM | 0.17 ± 0.01 nM | –
25 | Nc1ncnc2c(CN3CC(O)[C@@H](CSCCCCO)C3)c[nH]c12 (stereo partly drawn) [Compound 12, (4S)-1-((4-Amino-5H-pyrrolo[3,2-d]pyrimidin-7-yl)methyl)-4-(((4-hydroxybutyl)thio)methyl)pyrrolidin-3-ol] | 0.02 µg/mL (≈ 0.0569 µM) | 0.34 ± 0.07 nM | 0.11 ± 0.04 nM | –
26 | C#CCCCCSC[C@H]1CN(Cc2c[nH]c3c(N)ncnc23)C[C@@H]1O [Compound 14, (3R,4S)-1-({4-Amino-5H-pyrrolo[3,2-d]pyrimidin-7-yl}methyl)-4-[(hex-5-yn-1-ylthio)methyl]pyrrolidin-3-ol] | 0.004 to 0.008 µg/mL (≈ 0.0111 to 0.0223 µM) | 0.5 ± 0.2 nM | 0.09 ± 0.02 nM | –
27 | Nc1ncnc2c(CN3C[C@H](CCSCCO)[C@@H](O)C3)c[nH]c12 [Compound 16, (3R,4S)-1-({4-Amino-5H-pyrrolo[3,2-d]pyrimidin-7-yl}methyl)-4-{2-[(2-hydroxyethyl)thio]ethyl}pyrrolidin-3-ol] | 0.08 µg/mL (≈ 0.237 µM) | 0.26 ± 0.03 nM | 0.05 ± 0.01 nM | –
